{"source": "PubChem BioAssay AID2060623", "about": "(Molecular Pharmacology Branch, DTP, NCI, 2025)", "test_system": "227483-062-R1-J1-PDC complex spheroids with HUVEC/MSC, viability", "assay": "Anticancer human tumor 227483-062-R1-J1-PDC patient-derived pancreatic carcinoma cell line growth inhibition [CLK]", "conditions": "for viability, T/C: stronger effect = lower value", "method_in_brief": "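Multi-cell-type spheroids combined patient-derived tumor cells with HUVEC endothelial cells and human mesenchymal stem cells. Paired agents were dosed in half-log steps down from about clinical Cmax, or from 10 microM where Cmax was unknown.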", "key": {"[1]": {"conditions": "curve of first compound, second compound 0.0316 µM"}, "[2]": {"conditions": "curve of first compound, second compound 0.1 µM"}, "[3]": {"conditions": "curve of first compound, second compound 0.316 µM"}, "[4]": {"conditions": "curve of first compound, second compound 1 µM"}, "[5]": {"conditions": "curve of first compound, second compound 3.16 µM"}, "[6]": {"conditions": "curve of first compound, second compound 10 µM"}}, "note": "Values joined by “and” are separate entries in the source; they are usually repeats but may differ in a detail not shown here. Equal values may be shown once.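 Further: spheroids exposed to compounds for seven days before readout.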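 Wherever viability, T/C is given: percent of DMSO vehicle control luminescence as 100% viability.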"}
{"smiles": "CC(C)CC(NC(=O)C(Cc1ccccc1)NC(=O)c1cnccn1)B(O)O", "note": "(stereo unspecified) + CN1CCN(c2cc(C(=O)Nc3cc4cc(-c5cnn(C)c5)ccc4cn3)ccn2)CC1", "values": [{"measurement": "IC50", "setting": "[1]", "result": 1.54, "unit": "nM"}, {"measurement": "IC50", "setting": "[2]", "result": 1.02, "unit": "nM"}, {"measurement": "IC50", "setting": "[3]", "result": "< 0.949", "unit": "nM"}, {"measurement": "IC50", "setting": "[4]", "result": "< 0.949", "unit": "nM"}, {"measurement": "IC50", "setting": "[5]", "result": "< 0.949", "unit": "nM"}, {"measurement": "IC50", "setting": "[6]", "result": "< 0.949", "unit": "nM"}, {"measurement": "viability, T/C", "setting": "second compound 0.0316 µM, first compound 0.000949 µM", "result": 84.2, "unit": "%"}, {"measurement": "viability, T/C", "setting": "second compound 0.0316 µM, first compound 0.003 µM", "result": 2.58, "unit": "%"}, {"measurement": "viability, T/C", "setting": "second compound 0.0316 µM, first compound 0.00949 µM", "result": 0.65, "unit": "%"}, {"measurement": "viability, T/C", "setting": "second compound 0.0316 µM, first compound 0.03 µM", "result": 1.12, "unit": "%"}, {"measurement": "viability, T/C", "setting": "second compound 0.0316 µM, first compound 0.0949 µM", "result": 0.45, "unit": "%"}, {"measurement": "viability, T/C", "setting": "second compound 0.0316 µM, first compound 0.3 µM", "result": 0.74, "unit": "%"}, {"measurement": "viability, T/C", "setting": "second compound 0.1 µM, first compound 0.000949 µM", "result": 53.2, "unit": "%"}, {"measurement": "viability, T/C", "setting": "second compound 0.1 µM, first compound 0.003 µM", "result": 2.83, "unit": "%"}, {"measurement": "viability, T/C", "setting": "second compound 0.1 µM, first compound 0.00949 µM", "result": 1.48, "unit": "%"}, {"measurement": "viability, T/C", "setting": "second compound 0.1 µM, first compound 0.03 µM", "result": 5.65, "unit": "%"}, {"measurement": "viability, T/C", "setting": "second compound 0.1 µM, first compound 0.0949 µM", "result": 0.4, "unit": "%"}, {"measurement": "viability, T/C", "setting": "second compound 0.1 µM, first compound 0.3 µM", "result": 0.25, "unit": "%"}, {"measurement": "viability, T/C", "setting": "second compound 0.316 µM, first compound 0.000949 µM", "result": 2.47, "unit": "%"}, {"measurement": "viability, T/C", "setting": "second compound 0.316 µM, first compound 0.003 µM", "result": 3.26, "unit": "%"}, {"measurement": "viability, T/C", "setting": "second compound 0.316 µM, first compound 0.00949 µM", "result": 0.59, "unit": "%"}, {"measurement": "viability, T/C", "setting": "second compound 0.316 µM, first compound 0.03 µM", "result": 0.21, "unit": "%"}, {"measurement": "viability, T/C", "setting": "second compound 0.316 µM, first compound 0.0949 µM", "result": 0.29, "unit": "%"}, {"measurement": "viability, T/C", "setting": "second compound 0.316 µM, first compound 0.3 µM", "result": 0.75, "unit": "%"}, {"measurement": "viability, T/C", "setting": "second compound 1 µM, first compound 0.000949 µM", "result": 3.27, "unit": "%"}, {"measurement": "viability, T/C", "setting": "second compound 1 µM, first compound 0.003 µM", "result": 1.6, "unit": "%"}, {"measurement": "viability, T/C", "setting": "second compound 1 µM, first compound 0.00949 µM", "result": 0.47, "unit": "%"}, {"measurement": "viability, T/C", "setting": "second compound 1 µM, first compound 0.03 µM", "result": 2.61, "unit": "%"}, {"measurement": "viability, T/C", "setting": "second compound 1 µM, first compound 0.0949 µM", "result": 0.34, "unit": "%"}, {"measurement": "viability, T/C", "setting": "second compound 1 µM, first compound 0.3 µM", "result": 0.4, "unit": "%"}, {"measurement": "viability, T/C", "setting": "second compound 3.16 µM, first compound 0.000949 µM", "result": 5.84, "unit": "%"}, {"measurement": "viability, T/C", "setting": "second compound 3.16 µM, first compound 0.003 µM", "result": 2.27, "unit": "%"}, {"measurement": "viability, T/C", "setting": "second compound 3.16 µM, first compound 0.00949 µM", "result": 1.43, "unit": "%"}, {"measurement": "viability, T/C", "setting": "second compound 3.16 µM, first compound 0.03 µM", "result": 0.39, "unit": "%"}, {"measurement": "viability, T/C", "setting": "second compound 3.16 µM, first compound 0.0949 µM", "result": 0.63, "unit": "%"}, {"measurement": "viability, T/C", "setting": "second compound 3.16 µM, first compound 0.3 µM", "result": 1.73, "unit": "%"}, {"measurement": "viability, T/C", "setting": "second compound 10 µM, first compound 0.000949 µM", "result": 3.7, "unit": "%"}, {"measurement": "viability, T/C", "setting": "second compound 10 µM, first compound 0.003 µM", "result": 1.18, "unit": "%"}, {"measurement": "viability, T/C", "setting": "second compound 10 µM, first compound 0.00949 µM", "result": 0.37, "unit": "%"}, {"measurement": "viability, T/C", "setting": "second compound 10 µM, first compound 0.03 µM", "result": 1, "unit": "%"}, {"measurement": "viability, T/C", "setting": "second compound 10 µM, first compound 0.0949 µM", "result": 0.3, "unit": "%"}, {"measurement": "viability, T/C", "setting": "second compound 10 µM, first compound 0.3 µM", "result": 0.21, "unit": "%"}]}
{"smiles": "O=c1[nH]cc(F)c(=O)[nH]1", "values": [{"measurement": "viability, T/C", "setting": "compound 0.0316 µM", "result": "103% and 83.9%"}, {"measurement": "viability, T/C", "setting": "compound 0.1 µM", "result": "94.2% and 84.8%"}, {"measurement": "viability, T/C", "setting": "compound 0.316 µM", "result": "97% and 96.9%"}, {"measurement": "viability, T/C", "setting": "compound 1 µM", "result": 57, "unit": "%"}, {"measurement": "viability, T/C", "setting": "compound 3.16 µM", "result": "44.8% and 48%"}, {"measurement": "viability, T/C", "setting": "compound 10 µM", "result": "35.4% and 35.5%"}, {"measurement": "IC50", "setting": "curve of compound", "result": "1650 nM and 1700 nM"}]}
{"smiles": "COc1ccc([C@@H](O)c2cc(-c3ncnc4cc(N5CCOCC5)ccc34)c(F)cc2Cl)nn1", "note": "+ CN1CCN(c2cc(C(=O)Nc3cc4cc(-c5cnn(C)c5)ccc4cn3)ccn2)CC1", "values": [{"measurement": "IC50", "setting": "[1]", "result": "> 10000", "unit": "nM"}, {"measurement": "IC50", "setting": "[2]", "result": "> 10000", "unit": "nM"}, {"measurement": "IC50", "setting": "[3]", "result": "< 31.6", "unit": "nM"}, {"measurement": "IC50", "setting": "[4]", "result": "< 31.6", "unit": "nM"}, {"measurement": "IC50", "setting": "[5]", "result": "< 31.6", "unit": "nM"}, {"measurement": "IC50", "setting": "[6]", "result": "< 31.6", "unit": "nM"}, {"measurement": "viability, T/C", "setting": "second compound 0.0316 µM, first compound 0.0316 µM", "result": 95.2, "unit": "%"}, {"measurement": "viability, T/C", "setting": "second compound 0.0316 µM, first compound 0.1 µM", "result": 107, "unit": "%"}, {"measurement": "viability, T/C", "setting": "second compound 0.0316 µM, first compound 0.316 µM", "result": 115, "unit": "%"}, {"measurement": "viability, T/C", "setting": "second compound 0.0316 µM, first compound 1 µM", "result": 99, "unit": "%"}, {"measurement": "viability, T/C", "setting": "second compound 0.0316 µM, first compound 3.16 µM", "result": 75.7, "unit": "%"}, {"measurement": "viability, T/C", "setting": "second compound 0.0316 µM, first compound 10 µM", "result": 66.6, "unit": "%"}, {"measurement": "viability, T/C", "setting": "second compound 0.1 µM, first compound 0.0316 µM", "result": 60.8, "unit": "%"}, {"measurement": "viability, T/C", "setting": "second compound 0.1 µM, first compound 0.1 µM", "result": 69.8, "unit": "%"}, {"measurement": "viability, T/C", "setting": "second compound 0.1 µM, first compound 0.316 µM", "result": 54.1, "unit": "%"}, {"measurement": "viability, T/C", "setting": "second compound 0.1 µM, first compound 1 µM", "result": 73.5, "unit": "%"}, {"measurement": "viability, T/C", "setting": "second compound 0.1 µM, first compound 3.16 µM", "result": 66.2, "unit": "%"}, {"measurement": "viability, T/C", "setting": "second compound 0.1 µM, first compound 10 µM", "result": 48.8, "unit": "%"}, {"measurement": "viability, T/C", "setting": "second compound 0.316 µM, first compound 0.0316 µM", "result": 5.56, "unit": "%"}, {"measurement": "viability, T/C", "setting": "second compound 0.316 µM, first compound 0.1 µM", "result": 4.19, "unit": "%"}, {"measurement": "viability, T/C", "setting": "second compound 0.316 µM, first compound 0.316 µM", "result": 4.12, "unit": "%"}, {"measurement": "viability, T/C", "setting": "second compound 0.316 µM, first compound 1 µM", "result": 4.66, "unit": "%"}, {"measurement": "viability, T/C", "setting": "second compound 0.316 µM, first compound 3.16 µM", "result": 5.44, "unit": "%"}, {"measurement": "viability, T/C", "setting": "second compound 0.316 µM, first compound 10 µM", "result": 3.88, "unit": "%"}, {"measurement": "viability, T/C", "setting": "second compound 1 µM, first compound 0.0316 µM", "result": 1.55, "unit": "%"}, {"measurement": "viability, T/C", "setting": "second compound 1 µM, first compound 0.1 µM", "result": 3.72, "unit": "%"}, {"measurement": "viability, T/C", "setting": "second compound 1 µM, first compound 0.316 µM", "result": 3.44, "unit": "%"}, {"measurement": "viability, T/C", "setting": "second compound 1 µM, first compound 1 µM", "result": 2.14, "unit": "%"}, {"measurement": "viability, T/C", "setting": "second compound 1 µM, first compound 3.16 µM", "result": 2.19, "unit": "%"}, {"measurement": "viability, T/C", "setting": "second compound 1 µM, first compound 10 µM", "result": 1.68, "unit": "%"}, {"measurement": "viability, T/C", "setting": "second compound 3.16 µM, first compound 0.0316 µM", "result": 5.54, "unit": "%"}, {"measurement": "viability, T/C", "setting": "second compound 3.16 µM, first compound 0.1 µM", "result": 3.34, "unit": "%"}, {"measurement": "viability, T/C", "setting": "second compound 3.16 µM, first compound 0.316 µM", "result": 3.99, "unit": "%"}, {"measurement": "viability, T/C", "setting": "second compound 3.16 µM, first compound 1 µM", "result": 3.31, "unit": "%"}, {"measurement": "viability, T/C", "setting": "second compound 3.16 µM, first compound 3.16 µM", "result": 3.4, "unit": "%"}, {"measurement": "viability, T/C", "setting": "second compound 3.16 µM, first compound 10 µM", "result": 2.14, "unit": "%"}, {"measurement": "viability, T/C", "setting": "second compound 10 µM, first compound 0.0316 µM", "result": 2.64, "unit": "%"}, {"measurement": "viability, T/C", "setting": "second compound 10 µM, first compound 0.1 µM", "result": 1.93, "unit": "%"}, {"measurement": "viability, T/C", "setting": "second compound 10 µM, first compound 0.316 µM", "result": 2.01, "unit": "%"}, {"measurement": "viability, T/C", "setting": "second compound 10 µM, first compound 1 µM", "result": 1.95, "unit": "%"}, {"measurement": "viability, T/C", "setting": "second compound 10 µM, first compound 3.16 µM", "result": 1.9, "unit": "%"}, {"measurement": "viability, T/C", "setting": "second compound 10 µM, first compound 10 µM", "result": 1.68, "unit": "%"}]}
